# Results taken from patent US11643438B2, “Antimicrobial peptides and methods of use” (priority 2018, dated 2023).
# *1 amine or outer side, *2 acyl side, *3 side chain or, on linkers, in order; H or OH if unused. Where a SMILES comes first, the peptide text is derived from it. [ ]: non-standard residue; d: D form. X2 = CC[C@H](C)C[C@H](C)C[C@H](C)C[C@H](N[*:1])C(=O)[*:2]; X1 = CC[C@@H](C)[C@@H](O[*:1])C(=O)[*:2]; NMeVal(β-OH) = CN[C@H](C(=O)O)C(C)(C)O; aIle = CC[C@@H](C)[C@H](N)C(=O)O; NMeV = CN[C@H](C(=O)O)C(C)C; Sar = CNCC(=O)O
# Assays:
# [1] = test system: Aspergillus fumigatus ATCC MYA-3627; assay: Effect of serum on antifungal activity (MIC80); format: cell-based
# Protocol: (§1) Given that compound 1 contains a large number of hydrophobic amino acid residues that might promote non-specific protein binding resulting in a loss of in vivo activity, the efficacy of the compound was tested in the presence of blood serum against four fungal pathogens (C. albicans, C. auris, C. neoformans, and A. fumigatus) (Table 3).
# Candida albicans SC5314 [2] = assay: Effect of serum on antifungal activity (MIC80); format: cell-based
# Protocol: as §1
# Candida auris 381 = assay: Effect of serum on antifungal activity (MIC80); format: cell-based
# Protocol: as §1
# [3] = test system: Cryptococcus neoformans H99; assay: Effect of serum on antifungal activity (MIC80); format: cell-based
# Protocol: as §1
# C. albicans SC5314 Flu^R = assay: Ex vivo model of fungal keratitis (porcine cornea); design: species or system Candida albicans
# Candida albicans 3 = assay: Antifungal MIC80 assay, clinical yeast isolates
# Candida albicans 5 = assay: Antifungal MIC80 assay, clinical yeast isolates
# Candida albicans 24 = assay: Antifungal MIC80 assay, clinical yeast isolates
# Candida glabrata 2 = assay: Antifungal MIC80 assay, clinical yeast isolates
# Candida glabrata 4 = assay: Antifungal MIC80 assay, clinical yeast isolates
# Candida glabrata 11 = assay: Antifungal MIC80 assay, clinical yeast isolates
# Candida glabrata 16 = assay: Antifungal MIC80 assay, clinical yeast isolates
# Candida glabrata 20 = assay: Antifungal MIC80 assay, clinical yeast isolates
# Candida parapsilosis 7 = assay: Antifungal MIC80 assay, clinical yeast isolates
# Candida parapsilosis 15 = assay: Antifungal MIC80 assay, clinical yeast isolates
# Candida parapsilosis 28 = assay: Antifungal MIC80 assay, clinical yeast isolates
# Candida tropicalis 13 = assay: Antifungal MIC80 assay, clinical yeast isolates
# Candida auris 383 = assay: Antifungal MIC80 assay, clinical yeast isolates
# Candida auris 384 = assay: Antifungal MIC80 assay, clinical yeast isolates
# Candida auris 386 = assay: Antifungal MIC80 assay, clinical yeast isolates
# Candida haemulonii 393 = assay: Antifungal MIC80 assay, clinical yeast isolates
# [4] = test system: Candida duobushaemulonii 394; assay: Antifungal MIC80 assay, clinical yeast isolates
# Kodameae ohmeri 396 = assay: Antifungal MIC80 assay, clinical yeast isolates
# Candida krusei 397 = assay: Antifungal MIC80 assay, clinical yeast isolates
# Candida albicans SC5314 [5] = assay: Antifungal MIC80/MFC assay, fungal pathogen panel
# [6] = test system: Candida albicans ATCC 10231; assay: Antifungal MIC80/MFC assay, fungal pathogen panel; conditions: ATCC10231
# [7] = test system: Candida parapsilosis ATCC 22019 (Y-12969); assay: Antifungal MIC80/MFC assay, fungal pathogen panel
# [8] = test system: Candida krusei ATCC 6258 (Y-7179); assay: Antifungal MIC80/MFC assay, fungal pathogen panel
# [9] = test system: Cryptococcus neoformans H99; assay: Antifungal MIC80/MFC assay, fungal pathogen panel
# [10] = test system: Aspergillus fumigatus NRRL6113; assay: Antifungal MIC80/MFC assay, fungal pathogen panel
# [11] = test system: Aspergillus flavus NRRL485; assay: Antifungal MIC80/MFC assay, fungal pathogen panel
# [12] = test system: Aspergillus terreus 191A6; assay: Antifungal MIC80/MFC assay, fungal pathogen panel
# [13] = 0% serum (v/v) in growth medium
# [14] = 5% serum (v/v) in growth medium
# [15] = 10% serum (v/v) in growth medium
# [16] = Lodderomyces parapsilosis, ATCC22019
# [17] = Candida parapsilosis ATCC 22019 (Y-12969)
# [18] = Candida krusei ATCC 6258 (Y-7179)
compound,measurement,setting,value
"CC[C@H](C)C[C@H](C)C[C@H](C)C[C@@H]1NC(=O)[C@H](C(C)C)N(C)C(=O)[C@@H]([C@H](C)CC)OC(=O)[C@H](C(C)(C)O)N(C)C(=O)[C@H](CC(C)C)NC(=O)[C@H](C(C)C)N(C)C(=O)[C@H]([C@H](C)CC)NC(=O)[C@@H]2CCCN2C(=O)CN(C)C1=O [Compound 1, persephacin] (cyclo(L[NMeVal(β-OH)][X1][NMeV][X2][Sar]P[aIle][NMeV]))",MIC80,[1]; [13],2.5 µM
same,MIC80,[1]; [14],2.5 µM
same,MIC80,[1]; [15],2.5 µM
same,MIC80,"Candida albicans SC5314 [2]; Candida albicans, SC5314, Candida albicans SC5314, 0% serum (v/v) in growth medium",0.6 µM
same,MIC80,"Candida albicans SC5314 [2]; Candida albicans, SC5314, Candida albicans SC5314, 5% serum (v/v) in growth medium",0.15 µM
same,MIC80,"Candida albicans SC5314 [2]; Candida albicans, SC5314, Candida albicans SC5314, 10% serum (v/v) in growth medium",0.3 µM
same,MIC80,Candida auris 381; [14],1.25 µM
same,MIC80,Candida auris 381; [15],1.25 µM
same,MIC80,"Candida auris 381; Candidozyma auris, 0% serum (v/v) in growth medium",1.25 µM
same,MIC80,"[3]; Cryptococcus neoformans, H99, Cryptococcus neoformans H99, 0% serum (v/v) in growth medium",0.6 µM
same,MIC80,"[3]; Cryptococcus neoformans, H99, Cryptococcus neoformans H99, 5% serum (v/v) in growth medium",< 0.15 µM
same,MIC80,"[3]; Cryptococcus neoformans, H99, Cryptococcus neoformans H99, 10% serum (v/v) in growth medium",< 0.15 µM
same,CFU,"C. albicans SC5314 Flu^R; C. albicans SC5314 Flu^R, 118A 0.1% (1 mg/ml), natamycin 5% (50 mg/ml), fluconazole 2% (20 mg/ml)",0 CFU
same,effect of different doses on fungal growth,"C. albicans SC5314 Flu^R; Candida albicans SC5314FluR, 50-1,000 μg/mL, FIG. 9",effective at reducing or eliminating the fungus
same,MIC80,Candida albicans 3,2.5 µM
same,MIC80,Candida albicans 5,1.25 µM
same,MIC80,Candida albicans 24,0.6 µM
same,MIC80,"Candida glabrata 2; Nakaseomyces glabratus, 2",0.15 µM
same,MIC80,"Candida glabrata 4; Nakaseomyces glabratus, 4",1.25 µM
same,MIC80,"Candida glabrata 11; Nakaseomyces glabratus, 11",0.6 µM
same,MIC80,"Candida glabrata 16; Nakaseomyces glabratus, 16",0.3 µM
same,MIC80,"Candida glabrata 20; Nakaseomyces glabratus, 20",0.3 µM
same,MIC80,"Candida parapsilosis 7; Lodderomyces parapsilosis, 7",2.5 µM
same,MIC80,"Candida parapsilosis 15; Lodderomyces parapsilosis, 15",2.5 µM
same,MIC80,"Candida parapsilosis 28; Lodderomyces parapsilosis, 28",2.5 µM
same,MIC80,Candida tropicalis 13,0.625 µM
same,MIC80,"Candida auris 383; Candidozyma auris, 383",2.5 µM
same,MIC80,"Candida auris 384; Candidozyma auris, 384",2.5 µM
same,MIC80,"Candida auris 386; Candidozyma auris, 386",2.5 µM
same,MIC80,"Candida haemulonii 393; Candidozyma haemuli, 393",0.3 µM
same,MIC80,"[4]; Candidozyma duobushaemuli, 394",2.5 µM
same,MIC80,Kodameae ohmeri 396; 396,2.5 µM
same,MIC80,"Candida krusei 397; Pichia kudriavzevii, 397",2.5 µM
same,MFC,Candida albicans SC5314 [5],1.25 µM
same,MIC80,Candida albicans SC5314 [5],0.3 µM
same,MFC,[6],1.25 µM
same,MIC80,[6],0.6 µM
same,MFC,[7]; [16],2.5 µM
same,MIC80,[7]; [16],2.5 µM
same,MFC,"[8]; Pichia kudriavzevii, ATCC6258",2.5 µM
same,MIC80,"[8]; Pichia kudriavzevii, ATCC6258",1.25 µM
same,MFC,[9],2.5 µM
same,MIC80,[9],0.6 µM
same,MFC,[10],5 µM
same,MIC80,[10],2.5 µM
same,MFC,[11],> 10 µM
same,MIC80,[11],1.25 µM
same,MFC,[12],> 10 µM
same,MIC80,[12],2.5 µM
"C[C@@H]1[C@H](O)[C@@H](C)/C=C/C=C/C=C/C=C/C=C/C=C/C=C/[C@H](O[C@@H]2O[C@H](C)[C@@H](O)[C@H](N)[C@@H]2O)C[C@@H]2O[C@](O)(C[C@@H](O)C[C@@H](O)[C@H](O)CC[C@@H](O)C[C@@H](O)CC(=O)O[C@H]1C)C[C@H](O)[C@H]2C(=O)O [AMB, amphotericin B]",MIC80,[1]; [13],2.5 µM
same,MIC80,[1]; [14],<0.07 µM
same,MIC80,[1]; [15],0.15 µM
same,MIC80,"Candida albicans SC5314 [2]; Candida albicans SC5314, 0% serum (v/v) in growth medium",0.6 µM
same,MIC80,"Candida albicans SC5314 [2]; Candida albicans SC5314, 5% serum (v/v) in growth medium",<0.15 µM
same,MIC80,"Candida albicans SC5314 [2]; Candida albicans SC5314, 10% serum (v/v) in growth medium",<0.15 µM
same,MIC80,Candida auris 381; [13],2.5 µM
same,MIC80,Candida auris 381; [14],<0.15 µM
same,MIC80,Candida auris 381; [15],0.3 µM
same,MIC80,"[3]; Cryptococcus neoformans H99, 0% serum (v/v) in growth medium",1.25 µM
same,MIC80,"[3]; Cryptococcus neoformans H99, 5% serum (v/v) in growth medium",<0.15 µM
same,MIC80,"[3]; Cryptococcus neoformans H99, 10% serum (v/v) in growth medium",<0.15 µM
same,MIC80,Candida albicans 3,0.6 µM
same,MIC80,Candida albicans 5,0.6 µM
same,MIC80,Candida albicans 24,1.25 µM
same,MIC80,Candida glabrata 2; Candida glabrata 2,0.3 µM
same,MIC80,Candida glabrata 4; Candida glabrata 4,1.25 µM
same,MIC80,Candida glabrata 11; Candida glabrata 11,0.3 µM
same,MIC80,Candida glabrata 16; Candida glabrata 16,0.15 µM
same,MIC80,Candida glabrata 20; Candida glabrata 20,0.6 µM
same,MIC80,Candida parapsilosis 7; Candida parapsilosis 7,2.5 µM
same,MIC80,Candida parapsilosis 15; Candida parapsilosis 15,2.5 µM
same,MIC80,Candida parapsilosis 28; Candida parapsilosis 28,1.25 µM
same,MIC80,Candida tropicalis 13,0.15 µM
same,MIC80,"Candida auris 383; Candida auris 383, multidrug-resistant",2.5 µM
same,MIC80,"Candida auris 384; Candida auris 384, multidrug-resistant",2.5 µM
same,MIC80,"Candida auris 386; Candida auris 386, multidrug-resistant",2.5 µM
same,MIC80,"Candida haemulonii 393; Candida haemulonii 393, multidrug-resistant",5 µM
same,MIC80,"[4]; Candida duobushaemulonii 394, multidrug-resistant",5 µM
same,MIC80,"Kodameae ohmeri 396; Kodameae ohmeri 396, multidrug-resistant",1.25 µM
same,MIC80,"Candida krusei 397; Candida krusei 397, multidrug-resistant",2.5 µM
same,MFC,Candida albicans SC5314 [5],2.5 µM
same,MIC80,Candida albicans SC5314 [5],0.6 µM
same,MFC,[6],2.5 µM
same,MIC80,[6],0.6 µM
same,MFC,[7]; [17],5 µM
same,MIC80,[7]; [17],1.25 µM
same,MFC,[8]; [18],5 µM
same,MIC80,[8]; [18],2.5 µM
same,MFC,[9],2.5 µM
same,MIC80,[9],1.25 µM
same,MFC,[10],10 µM
same,MIC80,[10],2.5 µM
same,MFC,[11],10 µM
same,MIC80,[11],5 µM
same,MFC,[12],10 µM
same,MIC80,[12],2.5 µM
